Experiments:
[1] = test system: HIV-1 strain IIIB; test: Retrovirucidal effect on HIV-1 strain IIIB (Table 3); type: cell-based; conditions: pIC50=-log IC50, IC50 in M
Description: (§1) HIV-1 viral suspensions were obtained by coculture of MT4 cells and H9 cells chronically infected by HIV-ILai isolate. 200 μl of a cell supernatant containing viral particles (HIV-ILai: 100 TCID50) were incubated at room temperature with various concentrations of different inhibitors. After 3 hours, virions were washed through 0.02 μm anopore membrane in 1.5 mL Vectaspin tube (Whatman) for 10 minutes at 5 000 g. Each of the three subsequent washes was performed in the same conditions after the viral concentrate was refilled with 500 μL of RPMI medium. Then, the viral concentrate was readjusted to the initial volume with RPMI plus 10% foetal calf serum (FCS). The residual infectivity was assayed on P4 cells as described by CHARNEAU et al. (1994, J. Mol. Biol., 241, 651-662). Briefly, P4 cells were plated using 100 μL of DMEM medium plus 10% FCS in 96 plate multi-wells at 20×10^5 cells per mL. After overnight incubation at 37° C., the supernatant was discarded and the viral preparation (200 μL) was added. One day later the wells were washed three times in PBS. Each well was refilled with 200 μL of a reaction buffer containing 50 mM Tris-HCl pH 8.5, 100 mM 2-mercaptoethanol, 0.05% Triton X-100 and 5 mM 4-methylumbelliferyl β-D-galactopyranoside (MUG). After 3 hours at 37° C., the level of the reaction was measured in a fluorescence microplate reader.
(§2) The retrovirucidal effect of each pyridinone derivative listed in table 3 has been assayed according to the teachings of example 2, excepted that the anti-viral effect has been tested on the two following HIV-1 strains:
a) HIV-1 strain IIIB (see example 2);

[2] = test system: HIV-1 strain 103 N; test: Retrovirucidal effect on HIV-1 strain 103 N (Table 3); type: cell-based; conditions: HIV-1 strain 103N (RT Lys-103 to Asn mutant); pIC50=-log IC50, IC50 in M
Description: as §1, §2
b) HIV-1 strain 103 N which is a mutant strain bearing a point mutation in the reverse transcriptase gene leading to an enzyme wherein the initial Lys-103 residue is replaced for a Asn residue.
The HIV-1 103 N strain has also been described by SAHLBERG et al.,(1998, Antiviral Res., 37 (3): ASS) and BALZARiNI et al. (1996, Antimicrobial Agents and Chemotherapy, 40 (6): 1454-1466).

SMILES | HIV1 pIC50 strain IIIB [1] | HIV1 pIC50 strain 103N [2]
CCc1c(C)[nH]c(=O)c(N(C)C)c1Cc1c(C)cc(C)cc1C [Compound 59] | 5.029 | <5
CCc1c(C)[nH]c(=O)c(N(C)C)c1Cc1cccc(Br)c1 [Compound 60] | 8.444 | 7.001
CCc1c(C)[nH]c(=O)c(N(C)CCCSC)c1Cc1cc(C)cc(C)c1 [Compound 61] | 7.693 | 5.922
CCc1c(C)[nH]c(=O)c(N(C)CC(C)C)c1Cc1cc(C)cc(C)c1 [Compound 62] | 6.604 | 5.305
CCCc1[nH]c(=O)c(N(C)C)c(Cc2cc(C)cc(C)c2)c1C [Compound 63] | 7.029 | 6.334
CCc1c(C)[nH]c(=O)c(N(C)C)c1Cc1ccccc1Cl [Compound 65] | 8.284 | 6.405
CCc1c(C)[nH]c(=O)c(N(C)C)c1Cc1nccs1 [Compound 66] | 7.588 | 5.72
CCc1c(C)[nH]c(=O)c(N(C)Cc2ccccc2)c1Cc1cc(C)cc(C)c1 [Compound 67] | 6.804 | 4.955
CCCCNc1c(Cc2cc(C)cc(C)c2)c(CC)c(C)[nH]c1=O [Compound 69] | 6.891 | 5.655
CCCc1c(C)[nH]c(=O)c(N(C)C)c1Cc1cc(C)cc(C)c1 [Compound 71] | 7.777 | 7.049
CCc1c(C)[nH]c(=O)c(NCC(C)C)c1Cc1cc(C)cc(C)c1 [Compound 72] | 7.079 | <4
CCc1c(C)[nH]c(=O)c(N)c1C(OC)c1cc(C)cc(C)c1 (stereo not drawn) [Compound 73] | 8.027 | 6.92
CCc1c(C)[nH]c(=O)c(N)c1Cc1ccnc2ccccc12 [Compound 74] | <4 | <4
CCc1c(C)[nH]c(=O)c(N(C)C)c1Cc1ccnc2ccccc12 [Compound 75] | 5.252 | 4.132
Cc1cc(C)cc(Cc2cc(CCC(C)C)[nH]c(=O)c2N)c1 [Compound 76] | <5.494 | <4
Cc1cc(C)cc(Cc2cc(CCC(C)C)[nH]c(=O)c2N(C)C)c1 [Compound 77] | 5.827 | <4
CCc1c(C)[nH]c(=O)c(N(C)CCOC)c1Cc1cc(C)cc(C)c1 [Compound 78] | 8.678 | 7.128
CCc1c(C)[nH]c(=O)c(N(C)C(C)C)c1Cc1cc(C)cc(C)c1 [Compound 79] | 6.987 | 5.47
CCc1c(C)[nH]c(=O)c(N)c1CNCc1ccccc1 [Compound 80] | <4 | <4
CCNc1c(Cc2cc(C)cc(C)c2)c(CC)c(C)[nH]c1=O [Compound 81] | 7.866 | 6.444
CCCNc1c(Cc2cc(C)cc(C)c2)c(CC)c(C)[nH]c1=O [Compound 82] | 7.735 | 5.813
CCc1c(C)[nH]c(=O)c(N)c1CNCc1cccc(C)c1 [Compound 83] | <4.033 | <4
CCc1c(C)[nH]c(=O)c(N)c1Cc1nccn1C [Compound 84] | <4 | <4
Cc1cccc(Cc2c(C)c(C)[nH]c(=O)c2N)c1 [Compound 85] | 4.954 | <4
Cc1cccc(Cc2c(C)c(C)[nH]c(=O)c2N(C)C)c1 [Compound 86] | 7.863 | 5.936
CCc1c(C)[nH]c(=O)c(N)c1C(=O)c1cccc(C)c1 [Compound 87] | 6.46 | 5.653
Cc1cccc(C(=O)c2c(C)c(C)[nH]c(=O)c2N(C)C)c1 [Compound 96] | 7.824 | 6.37
